PubChem BioAssay (NCI)
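Where inhibition never reached the appropriate level, the endpoint shown equals the highest concentration tested. Otherwise, values were interpolated linearly from a five-concentration, 48-hour dose response in 96-well plates. The concentration for full growth arrest is given as TGI.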

Assays:
Test in all cases: growth of human tumour cells (NCI), 48 h
RXF-631 renal = test system: RXF-631 renal
SK-OV-3 ovarian = test system: SK-OV-3 ovarian
HCC-2998 colon = test system: HCC-2998 colon
M19-MEL melanoma = test system: M19-MEL melanoma
HOP-92 NSCLC = test system: HOP-92 NSCLC
CCRF-CEM leukemia = test system: CCRF-CEM leukemia
DLD-1 colon = test system: DLD-1 colon
A498 renal = test system: A498 renal
SN12C renal = test system: SN12C renal
HOP-62 NSCLC = test system: HOP-62 NSCLC
NCI-H226 lung = test system: NCI-H226 lung
NCI-H460 lung = test system: NCI-H460 lung
OVCAR-3 ovarian = test system: OVCAR-3 ovarian
LOX IMVI melanoma = test system: LOX IMVI melanoma
RPMI-8226 leukemia = test system: RPMI-8226 leukemia
MOLT-4 leukemia = test system: MOLT-4 leukemia
786-0 renal = test system: 786-0 renal
EKVX NSCLC = test system: EKVX NSCLC
OVCAR-4 ovarian = test system: OVCAR-4 ovarian
RXF 393 renal = test system: RXF 393 renal
XF 498 CNS = test system: XF 498 CNS
SF-295 CNS = test system: SF-295 CNS
ACHN renal = test system: ACHN renal
SF-268 CNS = test system: SF-268 CNS
UACC-257 melanoma = test system: UACC-257 melanoma
UACC-62 melanoma = test system: UACC-62 melanoma
LXFL 529 NSCLC = test system: LXFL 529 NSCLC
SNB-75 CNS = test system: SNB-75 CNS
SNB-19 CNS = test system: SNB-19 CNS
HT29 colon = test system: HT29 colon
IGROV1 ovarian = test system: IGROV1 ovarian
MALME-3M melanoma = test system: MALME-3M melanoma
TK-10 renal = test system: TK-10 renal
UO-31 renal = test system: UO-31 renal
A549 NSCLC = test system: A549 NSCLC
OVCAR-8 ovarian = test system: OVCAR-8 ovarian
NCI-H23 lung = test system: NCI-H23 lung
SNB-78 CNS = test system: SNB-78 CNS
COLO 205 colon = test system: COLO 205 colon
OVCAR-5 ovarian = test system: OVCAR-5 ovarian
KM12 colon = test system: KM12 colon
HOP-18 NSCLC = test system: HOP-18 NSCLC
HCT-15 colon = test system: HCT-15 colon
HCT-116 colon = test system: HCT-116 colon
SF-539 CNS = test system: SF-539 CNS
K-562 leukemia = test system: K-562 leukemia
M14 melanoma = test system: M14 melanoma
SK-MEL-2 melanoma = test system: SK-MEL-2 melanoma
SK-MEL-28 melanoma = test system: SK-MEL-28 melanoma
CAKI-1 renal = test system: CAKI-1 renal
SK-MEL-5 melanoma = test system: SK-MEL-5 melanoma
KM20L2 colon = test system: KM20L2 colon
DMS 114 small cell lung = test system: DMS 114 small cell lung
HL-60(TB) leukemia = test system: HL-60(TB) leukemia
SW-620 colon = test system: SW-620 colon
DMS 273 small cell lung = test system: DMS 273 small cell lung
U251 CNS = test system: U251 CNS
NCI-H522 lung = test system: NCI-H522 lung
SR leukemia = test system: SR leukemia

Measured: TGI

N#Cc1c(NN)nc(NN)c(C#N)c1-c1ccccc1
not listed: U251 CNS | NCI-H522 lung | SR leukemia
> 100 µM: all other assays above

C#CCOc1c(C(=O)OCC)c(=O)n(C)c2ccccc12
not listed: HCC-2998 colon | HOP-62 NSCLC | 786-0 renal | OVCAR-4 ovarian | RXF 393 renal | UACC-257 melanoma | A549 NSCLC | OVCAR-5 ovarian | KM12 colon | HCT-116 colon | DMS 273 small cell lung | SR leukemia
> 100 µM: all other assays above

Cc1cc2nc(CCC(=O)O)c(=O)[nH]c2cc1C
not listed: SW-620 colon | DMS 273 small cell lung
> 100 µM: all other assays above

CC1(CO)OC(n2cc(C(=O)NC(=O)OCc3ccccc3)c(=O)[nH]c2=O)CC1O (configuration not stated)
not listed: HCC-2998 colon | EKVX NSCLC | OVCAR-4 ovarian | RXF 393 renal | SNB-78 CNS | OVCAR-5 ovarian | SK-MEL-2 melanoma
> 100 µM: all other assays above
